Measurements: patent US20060160869A1, “Ubiquitin ligase inhibitors” (Rigel Pharmaceuticals, Inc., priority 2005, published 2006)

Assays:
[1] = target: MDM2 (Homo sapiens, UniProt Q00987); assay: Plate-based E3 ligase assay, MDM2 autoubiquitination (MDM2-FLAG); assay type: biochemical; details: Table 2; read-out: MDM2 IC50
Procedure: (§1) E3 (His-APC11/APC2—“APC”) auto-ubiquitination was measured as described in U.S. patent application Ser. No. 09/826,312 (Publication No. US-2002-0042083-A1), which is incorporated herein in its entirety. Details of the protocol are described below. Activity in the presence of the compound was determined relative to a parallel control in which only DMSO was added. Values of the IC50 were typically determined using 6 or 8 different concentrations of the compound, although as few as 2 concentrations may be used to approximate the IC50 value.
(§2) Nickel-coated 96-well plates (Pierce 15242) were blocked for 1 hour with 100 μl of blocking buffer at room temperature. The plates were washed 4 times with 225 μl of 1×PBS and 80 μl of the reaction buffer were added that contained 100 ng/well of Flag-ubiquitin. To this, 10 μl of the test compound diluted in DMSO were added. After the test compound was added, 10 μl of E1 (human), E2 (Ubch5c), and APC in Protein Buffer was added to obtain a final concentration of 5 ng/well of E1, 20 ng/well: of E2 and 100 ng/well of APC. The plate were shaken for 10 minutes and incubated at room temperature for 1 hour. After incubation, the plates were washed 4 times with 225 μl of 1×PBS and 100 μl/well of Antibody Mix were added to each well. The plates were incubate at room temperature for another hour after which they were washed 4 times with 225 μl of 1×PBS and 100 μl/well of Lumino substrate were added to each well. The luminescence was measured by using a BMG luminescence microplate reader.
In similar manner, autoubiquitination of the E3 MDM2 was determined (MDM2-FLAG). Further instruction in such assays can be found in U.S. patent application Ser. No. 10/108,767 (Publication No. US-2003-0104474 A1), which is incorporated herein in its entirety.
hMDM2 Plate/Gel is Mouse double minute 2, human homolog. This protein belongs to the E3 RING finger ligase group.

[2] = target: E3 (His-APC11/APC2, "APC") (Homo sapiens, UniProt Q9NYG5+Q9UJX6); assay: Plate-based E3 ligase assay (APC FLAG), auto-ubiquitination; assay type: biochemical; details: Table 2; read-out: APC IC50
Procedure: as §1, §2
APC Plate/gel is Anaphase Promoting Complex. This protein also belongs to E3 RING finger ligase group.

[3] = test system: p53 reporter system in p53 wild-type U2OS cell line; assay: p53-dependent transcription reporter assay, U20SRE; assay type: cell-based; details: p53 +ve cell type; maximal fold induction over DMSO control
Excerpt: (§3) Stable lines of U2OS (osteosarcoma; Wild-type p53 positive), HCT116 (colorectal carcinoma; Wild-type p53 positive) and H1299 (lung non-small cell carcinoma; p53 null) carrying p53-dependent transcriptional regulatory element linked to a Luciferase reporter gene and H1299 carrying a 5′-regulatory region of GADD45 linked to Luciferase were used.
Day 1: Cells were re-plated into 96-well plates at suitable densities to make 50-60% confluence on Day 2. The plating densities are as follows: 7.5×10^3 cells/well (or 2.5×10^4 cells/cm^2) for U2OS; 1.5×10^4 cells/well (or 5.0×10^4 cells/cm^2) for HCT116; and 1.0×10^4 cells/well (or 3.3×10^4 cells/cm^2) for H1299.
(§4) Day 2: The compounds or control drugs were diluted in dimethyl sulfoxide (DMSO) and added to the wells to create 6-points/2-fold serial dilution (20, 10, 5, 2.5, 1.25, 0.625 and 0 μM) for each compound. The DMSO concentration was adjusted to 0.2% in all wells.
(§5) Day 3: Twenty to 24 hours after compound addition, cells were twice washed with PBS and lysed with Glo-lysis buffer (100 μl/well, Promega; Cat#E2661). Plates were subjected to gentle agitation on a table-top shaker for 5 minutes at room temperature. Fifty μl of lysate was transferred to an assay plate to test for luciferase activity and mixed with 2× assay buffer (Promega; Cat# E1483). The reaction mixture was left at room temperature for 2 minutes and then luminescence was measure by a luminometer (Victor™, 1420 Multilabel Counter, Wallac).
(§6) Data analysis was done on Excel software (Microsoft). Values in Table 4 represent maximal fold induction over negative control (DMSO only) and are the mean of at least duplicate experiments.
U20SRE is a p53 wild-type U2OS cell line containing p53 reporter system. If the compound acts against MDM2, p53 activity increases.

[4] = test system: p53 reporter system in p53 wild-type A549 cell line; assay: p53-dependent transcription reporter assay, A549RE; assay type: cell-based; details: p53 +ve cell type; maximal fold induction over DMSO control
Procedure: as §3, §4, §5, §6
A549RE is a p53 wild-type A549 cell line containing p53 reporter system. If the compound acts against MDM2, p53 activity increases.

Sequence of MDM2 (Q00987 whole entry): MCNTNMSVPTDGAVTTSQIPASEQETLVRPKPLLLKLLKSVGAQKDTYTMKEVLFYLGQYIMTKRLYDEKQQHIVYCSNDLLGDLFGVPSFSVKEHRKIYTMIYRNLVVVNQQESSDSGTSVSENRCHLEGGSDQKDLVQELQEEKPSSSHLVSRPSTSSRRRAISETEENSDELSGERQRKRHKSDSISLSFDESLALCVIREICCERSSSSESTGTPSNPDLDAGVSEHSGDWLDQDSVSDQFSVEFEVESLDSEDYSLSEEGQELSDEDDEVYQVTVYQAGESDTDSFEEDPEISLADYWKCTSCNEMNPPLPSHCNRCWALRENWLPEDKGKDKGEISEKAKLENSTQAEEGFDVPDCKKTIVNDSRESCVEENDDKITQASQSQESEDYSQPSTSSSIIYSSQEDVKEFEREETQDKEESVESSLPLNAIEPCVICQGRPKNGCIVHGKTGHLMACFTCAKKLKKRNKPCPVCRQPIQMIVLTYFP
Sequence of E3 (His-APC11/APC2, "APC") (Q9NYG5 whole entry): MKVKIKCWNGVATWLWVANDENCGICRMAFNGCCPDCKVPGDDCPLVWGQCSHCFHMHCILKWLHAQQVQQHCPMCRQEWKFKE
Sequence of E3 (His-APC11/APC2, "APC") (Q9UJX6 whole entry): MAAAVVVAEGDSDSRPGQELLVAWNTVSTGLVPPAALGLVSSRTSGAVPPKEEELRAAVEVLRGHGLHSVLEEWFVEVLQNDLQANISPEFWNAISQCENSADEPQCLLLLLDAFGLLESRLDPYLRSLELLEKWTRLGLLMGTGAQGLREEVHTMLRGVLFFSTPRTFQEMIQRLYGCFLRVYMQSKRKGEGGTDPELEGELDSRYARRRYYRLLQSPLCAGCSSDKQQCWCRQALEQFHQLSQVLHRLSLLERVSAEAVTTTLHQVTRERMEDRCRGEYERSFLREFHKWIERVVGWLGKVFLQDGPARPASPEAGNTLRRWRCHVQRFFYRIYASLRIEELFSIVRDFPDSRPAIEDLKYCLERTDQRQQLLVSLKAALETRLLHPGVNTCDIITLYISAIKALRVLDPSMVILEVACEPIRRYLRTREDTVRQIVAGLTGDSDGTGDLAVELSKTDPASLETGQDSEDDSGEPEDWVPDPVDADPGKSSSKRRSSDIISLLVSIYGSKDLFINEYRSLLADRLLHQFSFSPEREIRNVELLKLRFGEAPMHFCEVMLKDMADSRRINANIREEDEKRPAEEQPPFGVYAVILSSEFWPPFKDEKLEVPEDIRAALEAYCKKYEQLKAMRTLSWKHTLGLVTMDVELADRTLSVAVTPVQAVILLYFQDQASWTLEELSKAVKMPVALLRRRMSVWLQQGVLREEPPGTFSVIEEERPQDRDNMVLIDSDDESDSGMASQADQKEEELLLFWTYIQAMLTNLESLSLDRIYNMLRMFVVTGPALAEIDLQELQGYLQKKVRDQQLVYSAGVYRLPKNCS

IC50 [1]: ≥ 20 µM
IC50 [2]: ≥ 20 µM
Fold Induction of p53 activity, U20SRE [3]: a (a means 2 or less)
Fold Induction of p53 activity, A549RE [4]: a (a means 2 or less)
SMILES: CC(C)N(CCN(Cc1ccc(C(=O)N2CCNCC2)cc1)c1nc(-c2cccc([N+](=O)[O-])c2)cs1)C(C)C [compound 233]
